How the values were obtained:
Type in all cases: in vivo
transplanted rice = assay: Test Example 1: preemergence treatment under submerged conditions, effect on crop; details: dose 2.52 g/a
Method in brief: (§1)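 Alluvial soil was flooded to 4 cm, sown with barnyardgrass, bulrush and ducksalad, and planted with 2.5-leaf rice seedlings. On the seeding day, water-diluted emulsifiable concentrates were applied to the water surface at set doses (g/a). After three weeks in a 25 to 30° C. greenhouse, mortality was scored 0–5.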

bulrush [1] = assay: Test Example 1: herbicidal effects in preemergence treatment under submerged conditions; details: dose 2.52 g/a
Method in brief: as §1

barnyardgrass [2] = assay: as above; details: dose 2.52 g/a
Method in brief: as §1

ducksalad [3] = assay: as above; details: dose 2.52 g/a
Method in brief: as §1

common ragweed [4] = assay: Test Example 3: herbicidal effects in soil treatment; details: dose 3.2 g/a
Method in brief: (§2)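 Seeds were sown in sterilized diluvial soil and covered with about 1.5 cm of soil. Compounds, formulated as emulsifiable concentrates and diluted with water, were sprayed evenly over the soil surface at set doses in g/a. Herbicidal effect was scored on a rating scale three weeks later.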

velvetleaf [5] = assay: as above; details: dose 3.2 g/a
Method in brief: as §2

water foxtail [6] = assay: as above; details: dose 3.2 g/a
Method in brief: as §2

common lambsquater [7] = assay: as above; details: dose 3.2 g/a
Method in brief: as §2

large crabgrass [8] = assay: as above; details: dose 3.2 g/a
Method in brief: as §2

barnyardgrass [9] = assay: as above; details: dose 3.2 g/a
Method in brief: as §2

common chickweed [10] = assay: as above; details: dose 3.2 g/a
Method in brief: as §2

redroot pigweed [11] = assay: as above; details: dose 3.2 g/a
Method in brief: as §2

Italian ryegrass [12] = assay: as above; details: dose 3.2 g/a
Method in brief: as §2

giant foxtail [13] = assay: as above; details: dose 3.2 g/a
Method in brief: as §2

posumbu knotweed [14] = assay: as above; details: dose 3.2 g/a
Method in brief: as §2

beadstraw [15] = assay: as above; details: dose 3.2 g/a
Method in brief: as §2

wild oat [16] = assay: as above; details: dose 3.2 g/a
Method in brief: as §2

common ragweed [17] = assay: Test Example 4: herbicidal effect in foliage treatment; details: dose 3.2 g/a, three weeks after the application
Method in brief: (§3)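 Sowing in sterilized diluvial soil, ~1.5 cm cover; growth 14 d, 25–30° C greenhouse; foliar spray of water-diluted EC at predetermined g/a; scoring 3 wk later on graded scale.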

velvetleaf [18] = assay: as above; details: dose 3.2 g/a, three weeks after the application
Method in brief: as §3

water foxtail [19] = assay: as above; details: dose 3.2 g/a, three weeks after the application
Method in brief: as §3

common lambsquater [20] = assay: as above; details: dose 3.2 g/a, three weeks after the application
Method in brief: as §3

large crabgrass [21] = assay: as above; details: dose 3.2 g/a, three weeks after the application
Method in brief: as §3

barnyardgrass [22] = assay: as above; details: dose 3.2 g/a, three weeks after the application
Method in brief: as §3

common chickweed [23] = assay: as above; details: dose 3.2 g/a, three weeks after the application
Method in brief: as §3

redroot pigweed [24] = assay: as above; details: dose 3.2 g/a, three weeks after the application
Method in brief: as §3

Italian ryegrass [25] = assay: as above; details: dose 3.2 g/a, three weeks after the application
Method in brief: as §3

giant foxtail [26] = assay: as above; details: dose 3.2 g/a, three weeks after the application
Method in brief: as §3

posumbu knotweed [27] = assay: as above; details: dose 3.2 g/a, three weeks after the application
Method in brief: as §3

beadstraw [28] = assay: as above; details: dose 3.2 g/a, three weeks after the application
Method in brief: as §3

wild oat [29] = assay: as above; details: dose 3.2 g/a, three weeks after the application
Method in brief: as §3

bulrush [30] = assay: Test Example 2: herbicidal effects during the vegetation period under submerged conditions; details: treatment during the vegetation period under submerged conditions; dose 2.52 g/a
Method in brief: (§4)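 Barnyardgrass, bulrush and ducksalad were co-sown in alluvial soil flooded to 4 cm and grown in a greenhouse at 25 to 30° C. At the 1- or 2-leaf stage, water-diluted emulsifiable concentrates went onto the water surface at set doses (g/a). Herbicidal effect was scored three weeks later on a graded scale.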

barnyardgrass [31] = assay: as above; details: treatment during the vegetation period under submerged conditions; dose 2.52 g/a
Method in brief: as §4

ducksalad [32] = assay: as above; details: treatment during the vegetation period under submerged conditions; dose 2.52 g/a
Method in brief: as §4

CCOC(=O)N(c1ccccc1CN1OCCCC1=O)S(=O)(=O)C(F)(F)F [III-13]
a: transplanted rice, effect on crop (evaluation scale 0-5) (transplanted rice): 1 (mortality of at least 5% and less than 20%) | B: bulrush, herbicidal effect (evaluation scale 0-5) (bulrush [1]): 5 (mortality of 90% or above (nearly complete death)) | A: barnyardgrass, herbicidal effect (evaluation scale 0-5) (barnyardgrass [2]): 5 (mortality of 90% or above (nearly complete death)) | C: ducksalad, herbicidal effect (evaluation scale 0-5) (ducksalad [3]): 5 (mortality of 90% or above (nearly complete death)) | herbicidal effect, J: common ragweed (common ragweed [4]): 5 (mortality of 90% or above (nearly complete death)) | herbicidal effect, I: velvetleaf (velvetleaf [5]): 5 (mortality of 90% or above (nearly complete death)) | herbicidal effect, G: water foxtail (water foxtail [6]): 5 (mortality of 90% or above (nearly complete death)) | herbicidal effect, L: common lambsquater (common lambsquater [7]): 0 (mortality of less than 5% (almost ineffective)) | herbicidal effect, D: large crabgrass (large crabgrass [8]): 5 (mortality of 90% or above (nearly complete death)) | herbicidal effect, A: barnyardgrass (barnyardgrass [9]): 5 (mortality of 90% or above (nearly complete death)) | herbicidal effect, N: common chickweed (common chickweed [10]): 4 (mortality of at least 70% and less than 90%) | herbicidal effect, K: redroot pigweed (redroot pigweed [11]): 3 (mortality of at least 40% and less than 70%) | herbicidal effect, H: Italian ryegrass (Italian ryegrass [12]): 5 (mortality of 90% or above (nearly complete death)) | herbicidal effect, E: giant foxtail (giant foxtail [13]): 5 (mortality of 90% or above (nearly complete death)) | herbicidal effect, M: posumbu knotweed (posumbu knotweed [14]): 0 (mortality of less than 5% (almost ineffective)) | herbicidal effect, O: beadstraw (beadstraw [15]): 0 (mortality of less than 5% (almost ineffective)) | herbicidal effect, F: wild oat (wild oat [16]): 3 (mortality of at least 40% and less than 70%) | J: common ragweed, herbicidal effect (common ragweed [17]): 4 (mortality of at least 70% and less than 90%) | I: velvetleaf, herbicidal effect (velvetleaf [18]): 5 (mortality of 90% or above (nearly complete death)) | G: water foxtail, herbicidal effect (water foxtail [19]): 5 (mortality of 90% or above (nearly complete death)) | L: common lambsquater, herbicidal effect (common lambsquater [20]): 0 (mortality of less than 5% (almost ineffective)) | D: large crabgrass, herbicidal effect (large crabgrass [21]): 5 (mortality of 90% or above (nearly complete death)) | A: barnyardgrass, herbicidal effect (barnyardgrass [22]): 5 (mortality of 90% or above (nearly complete death)) | N: common chickweed, herbicidal effect (common chickweed [23]): 4 (mortality of at least 70% and less than 90%) | K: redroot pigweed, herbicidal effect (redroot pigweed [24]): 0 (mortality of less than 5% (almost ineffective)) | H: Italian ryegrass, herbicidal effect (Italian ryegrass [25]): 4 (mortality of at least 70% and less than 90%) | E: giant foxtail, herbicidal effect (giant foxtail [26]): 5 (mortality of 90% or above (nearly complete death)) | M: posumbu knotweed, herbicidal effect (posumbu knotweed [27]): 0 (mortality of less than 5% (almost ineffective)) | O: beadstraw, herbicidal effect (beadstraw [28]): 4 (mortality of at least 70% and less than 90%) | F: wild oat, herbicidal effect (wild oat [29]): 0 (mortality of less than 5% (almost ineffective)) | B: bulrush, herbicidal effect (evaluation scale 0-5) (bulrush [30]): 5 (mortality of 90% or above (nearly complete death)) | A: barnyardgrass, herbicidal effect (evaluation scale 0-5) (barnyardgrass [31]): 5 (mortality of 90% or above (nearly complete death)) | C: ducksalad, herbicidal effect (evaluation scale 0-5) (ducksalad [32]): 5 (mortality of 90% or above (nearly complete death))

CC(C)COC(=O)N(c1ccccc1CN1OCCCC1=O)S(=O)(=O)C(F)(F)F [III-15]
a: transplanted rice, effect on crop (evaluation scale 0-5) (transplanted rice): 2 (mortality of at least 20% and less than 40%) | B: bulrush, herbicidal effect (evaluation scale 0-5) (bulrush [1]): 5 (mortality of 90% or above (nearly complete death)) | A: barnyardgrass, herbicidal effect (evaluation scale 0-5) (barnyardgrass [2]): 5 (mortality of 90% or above (nearly complete death)) | C: ducksalad, herbicidal effect (evaluation scale 0-5) (ducksalad [3]): 5 (mortality of 90% or above (nearly complete death)) | herbicidal effect, J: common ragweed (common ragweed [4]): 3 (mortality of at least 40% and less than 70%) | herbicidal effect, I: velvetleaf (velvetleaf [5]): 4 (mortality of at least 70% and less than 90%) | herbicidal effect, G: water foxtail (water foxtail [6]): 5 (mortality of 90% or above (nearly complete death)) | herbicidal effect, L: common lambsquater (common lambsquater [7]): 0 (mortality of less than 5% (almost ineffective)) | herbicidal effect, D: large crabgrass (large crabgrass [8]): 5 (mortality of 90% or above (nearly complete death)) | herbicidal effect, A: barnyardgrass (barnyardgrass [9]): 5 (mortality of 90% or above (nearly complete death)) | herbicidal effect, N: common chickweed (common chickweed [10]): 4 (mortality of at least 70% and less than 90%) | herbicidal effect, K: redroot pigweed (redroot pigweed [11]): 2 (mortality of at least 20% and less than 40%) | herbicidal effect, H: Italian ryegrass (Italian ryegrass [12]): 3 (mortality of at least 40% and less than 70%) | herbicidal effect, E: giant foxtail (giant foxtail [13]): 5 (mortality of 90% or above (nearly complete death)) | herbicidal effect, M: posumbu knotweed (posumbu knotweed [14]): 0 (mortality of less than 5% (almost ineffective)) | herbicidal effect, O: beadstraw (beadstraw [15]): 0 (mortality of less than 5% (almost ineffective)) | herbicidal effect, F: wild oat (wild oat [16]): 0 (mortality of less than 5% (almost ineffective)) | J: common ragweed, herbicidal effect (common ragweed [17]): 4 (mortality of at least 70% and less than 90%) | I: velvetleaf, herbicidal effect (velvetleaf [18]): 4 (mortality of at least 70% and less than 90%) | G: water foxtail, herbicidal effect (water foxtail [19]): 5 (mortality of 90% or above (nearly complete death)) | L: common lambsquater, herbicidal effect (common lambsquater [20]): 0 (mortality of less than 5% (almost ineffective)) | D: large crabgrass, herbicidal effect (large crabgrass [21]): 5 (mortality of 90% or above (nearly complete death)) | A: barnyardgrass, herbicidal effect (barnyardgrass [22]): 5 (mortality of 90% or above (nearly complete death)) | N: common chickweed, herbicidal effect (common chickweed [23]): 3 (mortality of at least 40% and less than 70%) | K: redroot pigweed, herbicidal effect (redroot pigweed [24]): 2 (mortality of at least 20% and less than 40%) | H: Italian ryegrass, herbicidal effect (Italian ryegrass [25]): 3 (mortality of at least 40% and less than 70%) | E: giant foxtail, herbicidal effect (giant foxtail [26]): 4 (mortality of at least 70% and less than 90%) | M: posumbu knotweed, herbicidal effect (posumbu knotweed [27]): 0 (mortality of less than 5% (almost ineffective)) | O: beadstraw, herbicidal effect (beadstraw [28]): 3 (mortality of at least 40% and less than 70%) | F: wild oat, herbicidal effect (wild oat [29]): 0 (mortality of less than 5% (almost ineffective)) | B: bulrush, herbicidal effect (evaluation scale 0-5) (bulrush [30]): 5 (mortality of 90% or above (nearly complete death)) | A: barnyardgrass, herbicidal effect (evaluation scale 0-5) (barnyardgrass [31]): 5 (mortality of 90% or above (nearly complete death)) | C: ducksalad, herbicidal effect (evaluation scale 0-5) (ducksalad [32]): 5 (mortality of 90% or above (nearly complete death))
